Assay results from patent US20240050441A1, “COMBINATION THERAPIES FOR THE TREATMENT OF CANCER” (Erasca, Inc., priority 2020, published 2024).
Entries after “also recorded” stand apart in the source; their conditions may differ.

Key:
Type in all cases: cell-based
SCC-25 cells = experiment: Cellular proliferation assay (CellTiter-Glo, day 5); details: read-out: The compound of Formula I IC50, compound of Formula I alone
Protocol: (§1) The cell lines used in the study were obtained from ATCC (CAL 27 #CRL-2095, SCC-15 #CRL-1623, SCC-25 #CRL-1628, SCC-4 #CRL-1624 and SCC-9 #CRL-1629). The cell line, CAL 27 was cultured in DMEM (Gib co #). SCC-4, SCC-15, SCC-25, SCC-9 cell lines was cultured in a 1:1 mixture of DMEM and Ham's F12 medium containing 1.2 g/L sodium bicarbonate, 2.5 mM L-glutamine, 15 mM HEPES and 0.5 mM sodium pyruvate supplemented with 400 ng/ml hydrocortisone, 90%; fetal bovine serum, 10% (Hyclone #SH-30071.03) and Penicillin/Streptomycin (Thermo Fisher #15070-063). The cells were maintained at 37° C./5% CO2. Cells were washed in ice cold PBS (Thermo Fisher Scientific #10010-023) and lysed in RIPA Lysis and Extraction Buffer (Thermo Fisher Scientific #89900) supplemented with Halt Phosphatase and Protease Inhibitor (Thermo Fisher Scientific #78445). The membrane was blocked for non-specific proteins by Bovine Serum Albumin BSA (Cell Signaling Tech #9998). Antibodies for immunoblotting were as follows: phospho-p44/42 ERK1/2 (Cell Signaling Tech #4370), ERK2 antibody (Santa Cruz #sc-1647), anti-mouse IgG HRP-linked antibody (Cell Signaling Tech #7076), and anti-rabbit IgG HRP-linked antibody (Cell Signaling Tech #7074).
(§2) […] HPV-negative head and neck squamous cancer cell lines, CAL 27, SCC-4, SCC-9, SCC-15 and SCC-25 were split onto 96 well plates.

CAL 27 cells = experiment: as above; details: Homo sapiens, read-out: The compound of Formula I IC50, compound of Formula I alone
Protocol: as §1, §2

SCC-9 cells = experiment: as above; details: Homo sapiens, read-out: The compound of Formula I IC50, compound of Formula I alone
Protocol: as §1, §2

SCC-15 cells = experiment: as above; details: Homo sapiens, read-out: The compound of Formula I IC50, compound of Formula I alone
Protocol: as §1, §2

ERK1/2 phosphorylation = experiment: Western blotting of phosphorylated ERK1/2 in CAL 27 cells; details: HPV-negative CAL 27 cells; 4 hours of treatment; immunoblot, bands normalized by total ERK
Protocol: as §1, with “The membrane was blocked for non-specific proteins by Bovine Serum Albumin BSA (Cell Signaling Tech #9998). Antibodies for immunoblotting were as follows: phospho-p44/42 ERK1/2 (Cell Signaling Tech #4370), ERK2 antibody (Santa Cruz #sc-1647), anti-mouse IgG HRP-linked antibody (Cell Signaling Tech #7076), and anti-rabbit IgG HRP-linked antibody (Cell Signaling Tech #7074).” left out
Western blotting: Cells were lysed on ice for 10 minutes with Thermo Fisher RIPA lysis buffer with protease and phosphatase inhibitors. […] The supernatant was transferred to pre-chilled microcentrifuge tube and protein concentration of the lysate was measured using BCA method. […]
After 4 hours of treatment, cells were lysed and immunoblotted for phosphorylated ERK1/2. […] The phosphorylated ERK1/2 bands were quantified by using Bio-Rad Image Lab software and normalized by total ERK.

Compound: COCOC[C@H]1C[C@H]2COc3c(Sc4cnc(N5CCC6(CC5)CO[C@@H](C)[C@H]6N)c(CO)n4)ccnc3N2C1 [The compound of Formula I]
- IC50 (SCC-25 cells): 8050 nM
- IC50 (CAL 27 cells): 112 nM
- IC50 (SCC-9 cells): 161 nM
- IC50 (SCC-15 cells): 1410 nM
- inhibition of ERK1/2 phosphorylation relative to DMSO treated control cells (ERK1/2 phosphorylation): approximately 50%; also recorded: about 50%
